“Also recorded” adds a separate entry of the source.
Legend:
[1] = test system: melanoma cell lines overexpressing ETBR; assay: Mouse melanoma brain metastasis model (xenografts of ETBR-overexpressing melanoma cell lines); assay type: in vivo, mice; settings: 60 mg/kg/day
Procedure: FIGS. 5A, 5B, 5C, 5D, and 5E. ETBR antagonist inhibits melanoma brain metastasis in mice. […] In this study, lentiviral vectors were used to overexpress ETBR in melanoma cell lines, which were in turn used to implant xenografts in mice.
A192621 inhibits melanoma brain metastasis in mice (FIGS. 5A, 5B, 5C, 5D, and 5E). […] A192621 was administered at a dose of 60 mg/kg/day using a mouse melanoma model. […] In this study, lentiviral vectors were used to overexpress ETBR in melanoma cell lines, which were in turn used to implant xenografts in mice. […]

[2] = test system: SKMEL28 human melanoma cells; assay: SKMEL28 human melanoma xenograft growth and lung metastasis in mice; assay type: in vivo
Procedure: FIGS. 4A and 4B. BQ788 inhibits melanoma growth and metastasis.
B0788 inhibits melanoma growth and metastasis (FIGS. 4A and 4B). […] Mice were implanted with 1×10^6 SKMEL28 human melanoma cells. Tumors were established for 10 days until palpable then 120 ng ([…]) BQ788 dissolved in DMSO was injected IP 3×per week×6 weeks. Mice were then sacrificed and lungs harvested and tumors weighed. A 75% reduction in tumor weight was observed.

[3] = Body weight of athymic nude mice under intranasal BQ788; assay type: in vivo
Procedure: FIG. 9. ETAR antagonist and Niacinamide mitigate weight loss from BQ788. Six week old athymic nude mice were administered the ETBR antagonist BQ788 intranasally in 20% DMSO at the indicated ascending doses over a period of 42 days. One group was additionally administered the ETAR antagonist Macitentan orally at a dose of 5 mg/kg daily. The drinking water of these mice was supplemented with the B vitamin niacinamide at a concentration of 0.3 mg/mL. […] Co-administration of the ETAR antagonist Macitentan with niacinamide supplementation mitigated this weight loss. […] Co-administration of ETAR antagonists and niacinamide with ETBR antagonists mitigated the adverse effects of ETBR antagonists when administered for therapeutic purposes.
ETAR antagonist and Niacinamide mitigate weight loss from B0788 (FIG. 9). Six week old athymic nude mice (n=3 per group) were administered the ETBR antagonist BQ788 intranasally in 20% DMSO at the indicated ascending doses over a period of 42 days. One group was additionally administered the ETAR antagonist Macitentan orally at a dose of 5 mg/kg daily. The drinking water of these mice was supplemented with the B vitamin niacinamide at a concentration of 0.3 mg/mL. […] Co-administration of the ETAR antagonist Macitentan with niacinamide supplementation mitigated this weight loss. […]

[4] = test system: A375 human melanoma cells; assay: A375 subcutaneous melanoma xenograft in Nu/J nude mice; assay type: in vivo; settings: Dabrafenib 100 mg/Kg PO daily, alone or + BQ788 600 ng IP TIW; day 11, p<0.05
Procedure: FIG. 7. BQ788 synergizes with Dabrafenib in vivo. A375 human melanoma cells were implanted subcutaneously into the rear flank of Nu/J nude mice and allowed to grow to 150 mm3-200 mm3 prior to randomization and initiation of treatment. The mice received the following treatments: (1) vehicle (n=8), (2) Dabrafenib 100 mg/Kg PO daily (n=5), and (3) Dabrafenib+BQ788 600 ng IP TIW (n=5).
B0788 synergizes with a bRAF inhibitor in vivo (FIG. 7). A375 human melanoma cells (3×10^6) were implanted subcutaneously into the rear flank of Nu/J nude mice and allowed to grow to 150 mm3-200 mm3 prior to randomization and initiation of treatment. The treatment groups were as follows: (1) vehicle (n=8), Dabrafenib 100 mg/Kg PO daily (n=5), (2) Dabrafenib+BQ788 600 ng IP 3×per week (n=5).

SMILES: CCCOc1ccc([C@H]2[C@H](C(=O)O)[C@@H](c3ccc4c(c3)OCO4)CN2CC(=O)Nc2c(CC)cccc2CC)cc1 [A192621, (2R,3R,4S)-4-(1,3-benzodioxol-5-yl)-1-[2-(2,6-diethylanilino)-2-oxoethyl]-2-(4-propoxyphenyl)pyrrolidine-3-carboxylic acid]
- CNS melanoma tumors [1]: shrinks CNS melanoma tumors
- brain melanoma metastases [1]: shrinks brain melanoma metastases
- survival [1]: increases survival

SMILES: CCCC[C@@H](NC(=O)[C@@H](Cc1cn(C(=O)OC)c2ccccc12)NC(=O)[C@H](CC(C)(C)C)NC(=O)N1[C@H](C)CCC[C@@H]1C)C(=O)O [BQ788]
- clearance of lung metastases ([2]; 120 ng (˜60 ug/kg) BQ788 in DMSO IP 3× per week × 6 weeks, lungs vs control mice): > 95%
- apoptosis in melanoma tumor cells ([2]; FIGS. 4A and 4B): induces apoptosis
- average weight loss relative to baseline body weight ([3]; BQ788 intranasally in 20% DMSO, ascending doses over 42 days, end of study): 5%
- body weight / thriving ([3]; BQ788 intranasally over 42 days, alone or with Macitentan 5 mg/kg daily orally and niacinamide 0.3 mg/mL in drinking water): failed to thrive

SMILES: CC(C)(C)c1nc(-c2cccc(NS(=O)(=O)c3c(F)cccc3F)c2F)c(-c2ccnc(N)n2)s1 [Dabrafenib]
- tumor growth [4]: retarded the growth of tumors; also recorded: retarded tumor growth

Reference: patent US20200289495A1, “METHODS OF INHIBITING ENDOTHELIN B RECEPTOR EXPRESSING TUMOR METASTASES” (ENB Therapeutics, Inc., priority 2020, published 2020)
